Columns and labels:
A549-induced tumors = assay: A549-inoculated xenograft mice, tumor volume; assay type: in vivo
Experimental: The experimental procedures using animals were in accordance with Institutional Animal Care guidelines and the French National Committee of Ethics. In addition, all experiments were conducted according to the Regulations for Animal Experimentation at the “Plate-forme […] the “Institut de Recherche en Santé de l'Université de Nantes (IRS-15N)” and approved by the French National Committee of Ethics. Cultured A549 cells were harvested by trypsinization, washed and resuspended in saline buffer. Cell suspensions were injected subcutaneously (s.c.) into the flanks of 7-/8-week-old mice (Janvier, France). Tumor volume based on caliper measurements was calculated using the modified ellipsoidal formula (Tumor volume=1⁄2(length×width2)).

[1] = test system: A549 (a lung cancer cell line); assay: Chemotherapy-induced cell death, PARP and Caspase-3 cleavage in A549; assay type: cell-based, human; settings: A549 exposed to Exo/αPD1; CIS 5 μM, ABT263 15 μM
Experimental: Colorimetric Cell Cytotoxicity Assay Kit (Abcam, France) was used to estimate the cell viability. Briefly, cells were seeded in 96-well plate. After the realization of manufacturer's instruction, absorbance was read at 570 and 605 nm using Victor™x3 spectrophotometer (Perkin-Elmer, France).
Levels of cleaved caspase-3 and cleaved PARP are considered as both biomarkers of apoptosis. The measurement of these two parameters was performed using the Human Cleaved PARP1 and Human Cleaved Caspase-3 ELISA Kits (Abcam, France) according to the manufacturer's protocol.
In view of the data described above, associating the ineffectiveness of cisplatin+αPD1 therapy with exomiR-4315-induced Bim down-expression, we then studied the effect of a “Bim/BH3 mimetic drug” such as ABT263 on the resistance to cisplatin of A549 cells exposed to Exo/αPD1. A549 lung cancer cells were then exposed to Exo/αPD1 and Exo prior to the addition of cisplatin (CIS, 5 μM) and/or ABT263 (15 μM). ABT263 abrogated the Exo/αPD1-induced resistance to CIS (FIG. 4A).

3′UTR/Bim plasmid = assay: Luciferase 3'UTR reporter assay; assay type: cell-based, human; settings: A172
Experimental: Cells were seeded in 24-well plates and were transfected with the indicated firefly luciferase constructs together with an SV40-renilla control vector. Lysates were prepared at […], and luciferase activity was measured using the Dual Luciferase Reporter Assay system (Promega, France) and a luminometer (MicroLumat Plus, EG&G Berthold, France).

Bim = Bim expression (in-cell ELISA, RT-qPCR) in A172 cells; assay type: cell-based, human
Experimental: In cell ELISA were performed using the Bim Colorimetric Cell-Based ELISA kit (Aviva Systems Biology, France) according to the manufacturer's instructions. Briefly, 5 000 cells were seeded in 96-well plate to be exposed or not to indicated exosome or miRNA. After that, cells were treated with a fixing solution (4% of paraformaldehyde solution) for 10 min at room temperature. Primary antibody was incubated overnight at 4° C. Adequate HRP-conjugated secondary antibodies were incubated for 1 hour at room temperature. Detection was performed at 450 nm.
After washes, cells in each well were incubated with crystal violet solution for 5 min at room temperature, according to the manufacturer's instructions. Absorbance was read at 595 nm, and used to normalize the “Bim signal”.
RNA extract is performed using RNeasy Mini QIAcube Kit and QIAcube (Qiagen, France). RT-qPCRs are performed using QuantiTect Reverse Transcription Kit, Rotor-Gene SYBR Green PCR Kit, QuantiTect Primer Assays and Rotor-Gene Q as real-time thermocycler (Qiagen, France). Reference gene RPLPO was used, with the 2-ΔΔCt relative quantification method.

Compound: CC1(C)CCC(c2ccc(Cl)cc2)=C(CN2CCN(c3ccc(C(=O)NS(=O)(=O)c4ccc(N[C@H](CCN5CCOCC5)CSc5ccccc5)c(S(=O)(=O)C(F)(F)F)c4)cc3)CC2)C1 [ABT263, navitoclax]
- deleterious effect of Exo/αPD1 on the CIS-resistance of cancer cells (A549-induced tumors; A549 xenograft mice): suppressed
- Exo/αPD1-induced resistance to CIS [1]: abrogated

Compound: N.N.[Cl][Pt][Cl] [CIS, cisplatin]
- volume of A549-induced tumors (A549-induced tumors; xenograft mice): decreased

Compound: 5′CCGCUUUCUGAGCUGGAC (miScript mimic, further chemistry not given here) [mimic miR-4315, Syn-hsa-miR-4315 miScript miRNA Mimic]
- luciferase activity associated with the 3′UTR/Bim plasmid (3′UTR/Bim plasmid): decreased
- Bim expression (protein and mRNA levels) (Bim): down-regulated
